Experimental data reported in patent publication US8871208B2, “11-β-hydroxysteroid dehydrogenase type 1 (11β-HSD1) inhibitors and uses thereof” (AbbVie Inc., priority 2009, dated 2014).
Marks after values point to notes of the source that are not given here.

Experiments:
[1] = test system: inflammation, tissue destruction, bone erosion; details: animal models of RA; cited from earlier work
[2] = test system: plasma osteocalcin; experiment: Study A: prednisolone-induced osteocalcin reduction in rats; format: in vivo; details: prednisolone 10 mg/kg po, 4 hour time point
Text: Prednisolone (active GC) administration to rats induces a variety of acute physiological effects including an increase in liver tyrosine amino transferase, increase in serum free fatty acids, increase in liver glycogen levels, hyperglycemia, decrease in osteocalcin, among others. Osteocalcin is of particular interest since a decrease in this hormone leads to decreased bone formation, increasing the potential for osteoporosis. Administration of an 11β-HSD-1 inhibitor would be expected to reduce local reactivation of prednisolone from prednisone in the bone or relevant tissue, and thereby reduce loss of osteocalin levels. […] Prednisone is reactivated, however, to prednisolone in the liver, bone and other tissues where 11β-HSD-1 is expressed. By blocking this reactivation through the use of an 11β-HSD-1 inhibitor, the exposure of active glucocorticoid in bone would be minimized. […] To validate this hypothesis, effects of the 11β-HSD-1 inhibitor (compound A) on prednisolone-induced osteocalcin reduction was evaluated in rats using two separate protocols as indicated in the Table 8 below.
In Study A, rats were pre-dosed with Compound A at 30 mg/kg 1 hour prior to administration with the active glucocorticoid, prednisolone, at 10 mg/kg, po. At 2 and 4 hours after dosing prednisolone, rats were sacrificed, and blood evaluated for levels of osteocalcin.

[3] = test system: P1NP (N-terminal propeptide of type I procollagen); experiment: Mouse model of glucocorticoid-induced osteoporosis: plasma P1NP; format: in vivo; details: mice; for % Inhibition of P1NP, (−) Inhibitor: control diet; for % Inhibition of P1NP, (+) Inhibitor: diet with 873 mg Compound B/kg
Text: (§1) Purpose: The purpose of this experiment was to determine if inhibiting 11β-HSD-1 in mice results in protection from prednisolone-induced bone loss over a 28-day period, while maintaining the same anti-inflammatory efficacy against lipopolysaccharide(LPS)-induced TNFα.
(§2) Animals: Female Swiss Webster mice from Charles River Laboratories (CFW mice) were used in this study. Mice were 10 weeks old at the start of the study. Two identical prednisolone dose responses were run with a vehicle control (n=12), 5, 1.5, and 0.5 mg/kg dosed for 28 days (n=8 each), and 1.5 mg/kg dosed for 27 days (n=8, to determine if prednisolone needed to be on board to affect tumor necrosis factor-alpha(TNFα), procollagen type 1 N-terminal propeptide(P1NP), and Osteocalcin). […] The total number of animals used was 88.
(§3) Experimental Design: All animals were placed on the control diet (Research Diets Rodent Diet with 60 kcal % Fat: D12492i) upon arrival. […] Also on this day, animals were weighed for baselines and ear-tagged for identification. On day 1 of the study, all animals were injected intraperitoneally (i.p.) with 10 mg/kg of calcein (Sigma #C0875) in 2% sodium bicarbonate (Sigma #S6014, dissolved in deionized water). […] On day 27, 4 animals from each vehicle control group were challenged with 5 mg/kg of 11-dehydrocorticosterone (11-DHC [Steraloids #Q3690-000]) p.o., and plasma was collected 30 minutes later for corticosterone analysis by mass spec. […] Thirty minutes later, all groups were challenged with 0.1 mg/kg of LPS (Sigma #L4130) to induce TNFα. […] Right leg bones, left leg bones, and the spinal columns of all mice were collected and stored as follows:
N-terminal propeptide of type I procollagen (PINP) was measured using the Rat/Mouse PINP EIA kit from Immunodiagnostic Systems. The protocol was followed as outlined in the kit, except for that sample dilutions were made in a separate plate instead of directly in the ELISA plate. Samples were read using a Molecular Devices Spectra Max 190 plate reader and Soft Max Pro 5.2 software.

[4] = test system: Osteocalcin; experiment: Mouse model of glucocorticoid-induced osteoporosis: plasma osteocalcin; format: in vivo; details: mice; for % Inhibition of Osteocalcin, (−) Inhibitor: control diet; for % Inhibition of Osteocalcin, (+) Inhibitor: diet with Compound B
Text: as §1, §2, §3
Osteocalcin was measured using the Millipore Milliplex Mouse Osteocalcin Single-Plex Kit. The protocol was followed exactly as outlined in the kit. Samples were read on a BioRad Bio-Plex System, model # Luminex 100 and Bio-Plex Manager 4.1.1 software.

[5] = test system: TNFα; experiment: Mouse model of glucocorticoid-induced osteoporosis: LPS-induced TNFα; format: in vivo; details: mice, LPS 0.1 mg/kg challenge; for % Inhibition of TNFα, (−) Inhibitor: control diet; for % Inhibition of TNFα, (+) Inhibitor: diet with Compound B
Text: as §1, §2, §3
TNFα was measured using the Mouse […] Quantikine ELISA kit from R&D Systems. The protocol was followed as outlined in the kit. Samples were read using a Molecular Devices Spectra Max 250 plate reader and Soft Max Pro 4.8 software.

[6] = test system: Trabecular bone at Femoral Metaphysis; experiment: Mouse model of glucocorticoid-induced osteoporosis: femur histomorphometry; format: in vivo; details: mice; for % Increase in dLS/BS, (−) Inhibitor / % Inhibition of BFR/BV, (−) Inhibitor / % Inhibition of MAR, (−) Inhibitor: control diet; for % Inhibition of MAR, (+) Inhibitor / % Increase in BFR/BV, (+) Inhibitor / % Increase in dLS/BS, (+) Inhibitor: diet with Compound B
Text: as §1, §2, §3
Left leg bones were removed, cleaned, and cut identically to the right leg bones. However, left legs were separated at the knee joint by carefully teasing apart with a scalpel.
Femurs were fixed in 4% paraformaldehyde for 48 hours, and transferred to 30% sucrose for 24 hours before embedding in a CMC (carboxymethylcellulose) block. Blocks were frozen in liquid nitrogen-cooled hexanes (−60° C. or colder) for 3-5 minutes, and stored at −80° C. Femurs were then sectioned on a cryomicrotome.
Bone was measured from 8-10 fields per femur, with each field being 400×500 microns in size. All dynamic measurement calculations were made from scoring the second and third fluorochrome labels, which were administered 11 days apart. OsteoMeasure software was used to obtain all values.
Bone formation rate/bone volume (BFR/BV) refers to the volume of new bone formed per unit of time, and is measured as a percent per day. BFR is the most significant measure of bone formation.
Mineral apposition rate (MAR) refers to the distance between two fluorochrome labels divided by the number of days between label administration, and is indicative of osteoblastic activity.
Double labeled surface/bone surface (dLS/BS) refers to the percentage of trabecular bone surface which is double-labeled, and is another readout indicative of bone formation.

[7] = test system: markers of bone resorption; details: bone samples, healthy human volunteers, orally dosed; cited from earlier work
[8] = test system: insulin sensitivity; details: humans; cited from earlier work
[9] = target: T1, truncated human 11β-HSD-1 enzyme (24-287AA) (Homo sapiens, UniProt P28845); experiment: Human 11β-HSD-1 enzymatic SPA assay; format: biochemical; details: human enzyme, SPA
T1 construct: truncated human 11β-HSD-1 enzyme (24-287AA); made in house; host or cells: E. coli (lysate)
T1 sequence (P28845 24-287): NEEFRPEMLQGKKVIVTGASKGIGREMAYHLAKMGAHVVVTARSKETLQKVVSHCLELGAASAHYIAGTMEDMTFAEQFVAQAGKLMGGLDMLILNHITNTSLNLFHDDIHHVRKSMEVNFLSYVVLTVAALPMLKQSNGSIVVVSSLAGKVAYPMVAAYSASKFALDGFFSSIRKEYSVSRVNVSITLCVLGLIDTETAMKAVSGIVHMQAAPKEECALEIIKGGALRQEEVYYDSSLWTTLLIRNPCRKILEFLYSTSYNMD
Method: (§4) The ability of test compounds to inhibit human 11β-HSD-1 enzymatic activity in vitro was evaluated in a Scintillation Proximity Assay (SPA). […] The reaction was stopped by adding a non-specific 11β-HSD inhibitor, 18β-glycyrrhetinic acid. The tritiated cortisol was captured by a mixture of an anti-cortisol monoclonal antibody and SPA beads coated with anti-mouse antibodies. The reaction plate was shaken at room temperature and the radioactivity bound to SPA beads was then measured on a β-scintillation counter. The 11β-HSD-1 assay was carried out in 96-well microtiter plates in a total volume of 220 μl. […] In order to drive the reaction in the forward direction, 1 mM G-6-P was also added. Solid compound was dissolved in DMSO to make a 10 mM stock followed by a subsequent 10-fold dilution with 3% DMSO in Tris/EDTA buffer (pH 7.4). 22 μl of titrated compounds was then added in triplicate to the substrate. Reactions were initiated by the addition of 10 μl of 0.1 mg/ml E. coli lysates overexpressing 11β-HSD-1 enzyme. After shaking and incubating plates for 30 minutes at room temperature, reactions were stopped by adding 10 μl of 1 mM glycyrrhetinic acid. The product, tritiated cortisol, was captured by adding 10 μl of 1 μM monoclonal anti-cortisol antibodies and 100 μl SPA beads coated with anti-mouse antibodies. After shaking for 30 minutes, plates were read on a liquid scintillation counter Topcount. Percent inhibition was calculated based on the background and the maximal signal. Wells that contained substrate without compound or enzyme were used as the background, while the wells that contained substrate and enzyme without any compound were considered as maximal signal. Percent of inhibition of each compound was calculated relative to the maximal signal and IC50 curves were generated. This assay was applied to 11β-HSD-2 as well, whereby tritiated cortisol and NAD^+ were used as substrate and cofactor, respectively.

[10] = target: T2, human 11β-HSD-2 (Homo sapiens, UniProt P80365); experiment: Human 11β-HSD-2 enzymatic SPA assay; format: biochemical; details: human enzyme, SPA
T2 sequence (P80365 1-405): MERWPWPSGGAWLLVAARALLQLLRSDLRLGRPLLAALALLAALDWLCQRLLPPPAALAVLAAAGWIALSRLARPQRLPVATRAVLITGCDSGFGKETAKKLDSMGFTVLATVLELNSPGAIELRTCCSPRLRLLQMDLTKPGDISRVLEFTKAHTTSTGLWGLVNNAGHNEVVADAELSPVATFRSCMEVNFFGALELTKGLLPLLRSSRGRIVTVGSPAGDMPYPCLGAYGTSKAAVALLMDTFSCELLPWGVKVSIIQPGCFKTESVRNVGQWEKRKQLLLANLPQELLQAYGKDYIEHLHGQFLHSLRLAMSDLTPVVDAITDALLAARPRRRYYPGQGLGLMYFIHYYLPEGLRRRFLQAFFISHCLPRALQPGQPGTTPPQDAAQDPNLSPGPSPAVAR
Method: as §4

[11] = prednisolone 0.5 mg/kg p.o. daily 28 days
[12] = prednisolone 5 mg/kg, p < 0.05 vs. (−) inhibitor
[13] = prednisolone 0.5 mg/kg, p < 0.05 vs. vehicle control

CC1(C)[C@@H](O)CC[C@]2(C)[C@H]3C(=O)C=C4[C@@H]5C[C@@](C)(C(=O)O)CC[C@]5(C)CC[C@@]4(C)[C@]3(C)CC[C@@H]12 [glycyrrhetinic acid]
effect on inflammation, tissue destruction and bone erosion [1]: reduced inflammation and tissue destruction as well as bone erosion

C[C@]12C=CC(=O)C=C1CC[C@@H]1[C@@H]2[C@@H](O)C[C@@]2(C)[C@H]1CC[C@]2(O)C(=O)CO [Prednisolone, prednisolone, reference compound]
plasma osteocalcin after prednisolone [2]: significant reductions in plasma osteocalcin
% Inhibition of P1NP, (−) Inhibitor [3, 11]: 33%
% Inhibition of P1NP, (−) Inhibitor ([3]; prednisolone 5 mg/kg p.o. daily 28 days): 51%
% Inhibition of Osteocalcin, (−) Inhibitor ([4]; prednisolone 0.5 mg/kg): 10%
% Inhibition of Osteocalcin, (−) Inhibitor ([4]; prednisolone 5 mg/kg): 45%
% Inhibition of TNFα, (−) Inhibitor ([5]; prednisolone 0.5 mg/kg): 80%
% Inhibition of TNFα, (−) Inhibitor ([5]; prednisolone 5 mg/kg): 98%
% Inhibition of TNFα, (−) Inhibitor ([5]; prednisolone […]): 95%
% Increase in dLS/BS, (−) Inhibitor ([6]; prednisolone 0.5 mg/kg): No Increase
% Inhibition of BFR/BV, (−) Inhibitor ([6]; prednisolone 0.5 mg/kg): No Inhibition
% Inhibition of MAR, (−) Inhibitor ([6]; prednisolone 0.5 mg/kg): 33%
% Increase in dLS/BS, (−) Inhibitor ([6]; prednisolone 5 mg/kg): No Increase
% Inhibition of BFR/BV, (−) Inhibitor ([6]; prednisolone 5 mg/kg): 27%
% Inhibition of MAR, (−) Inhibitor ([6]; prednisolone 5 mg/kg): 52%

CC(C)(Oc1ccc(F)cc1Cl)C(=O)NC1C2CC3CC1CC(S(C)(=O)=O)(C3)C2 (stereo not shown) [Compound B, 2-(2-chloro-4-fluorophenoxy)-2-methyl-N-[(E)-5-(methylsulfonyl)-2-adamantyl]propanamide]
% Inhibition of P1NP, (+) Inhibitor [3, 11]: 25%
% Inhibition of P1NP, (+) Inhibitor ([3]; prednisolone […] p.o. daily 28 days): 28%
% Inhibition of Osteocalcin, (+) Inhibitor ([4]; prednisolone 0.5 mg/kg): 18%
% Inhibition of Osteocalcin, (+) Inhibitor [4, 12]: 28%*
% Inhibition of TNFα, (+) Inhibitor ([5]; prednisolone 0.5 mg/kg): 80%
% Inhibition of TNFα, (+) Inhibitor ([5]; prednisolone 5 mg/kg): 98%
% Inhibition of TNFα, (+) Inhibitor ([5]; prednisolone […]): 94%
% Inhibition of MAR, (+) Inhibitor ([6]; prednisolone 0.5 mg/kg): 9%
% Increase in BFR/BV, (+) Inhibitor [6, 13]: 47%^#
% Increase in dLS/BS, (+) Inhibitor [6, 13]: 22%^#
% Inhibition of MAR, (+) Inhibitor ([6]; prednisolone 5 mg/kg): 23%
% Increase in BFR/BV, (+) Inhibitor [6, 12]: 30%*
% Increase in dLS/BS, (+) Inhibitor ([6]; prednisolone 5 mg/kg, p < 0.05 vs. vehicle control): 46%^#

CC1(C)[C@@H](OC(=O)CCC(=O)O)CC[C@]2(C)[C@H]3C(=O)C=C4[C@@H]5C[C@@](C)(C(=O)O)CC[C@]5(C)CC[C@@]4(C)[C@]3(C)CC[C@@H]12 [carbenoxolone]
markers of bone resorption [7]: significant decrease in markers of bone resorption
insulin sensitivity [8]: improves insulin sensitivity

CC(C)(C(=O)N[C@@H]1[C@@H]2C[C@@H]3C[C@H]1C[C@@](CC(=O)O)(C3)C2)N1CCN(c2ccc(C(F)(F)F)cn2)CC1 [{(E)-4-[(2-methyl-2-{4-[5-(trifluoromethyl)pyridin-2-yl]piperazin-1-yl}propanoyl)amino]-1-adamantyl}acetic acid]
IC50 [9]: 80 nM
IC50 [10]: > 10000 nM

NC(=O)C12CC3CC(C1)C(NC(=O)C1(Oc4ccc(Cl)cc4)CCC1)C(C3)C2 (stereo not shown) [(E)-4-({[1-(4-chlorophenoxy)cyclobutyl]carbonyl}amino)adamantane-1-carboxamide]
IC50 [9]: 89 nM
IC50 [10]: 90000 nM
